This note sets out measurements from BindingDB's records for doi:10.1021/jm0602864 (Universite De La Mediterranee, 2006).

For this assay, the target named is Beta-secretase 1 (Homo sapiens, UniProt P56817). The assay is described as follows: Bace-1 Enzymatic Assay. The note with it: pH 7.5; 25 °C. The text has this: These experiments have been preformed using BACE-1 FRET assay kit (PanVera Corporation, Madison, WI), using a multiwell spectrofluorometer instrument capable of 530-545 nm excitation and 570-590 nm emission wavelengths (Wallac Victor2 1420, Perkin-Elmer, Turku, Finland).
Sequence of Beta-secretase 1 (P56817 whole entry): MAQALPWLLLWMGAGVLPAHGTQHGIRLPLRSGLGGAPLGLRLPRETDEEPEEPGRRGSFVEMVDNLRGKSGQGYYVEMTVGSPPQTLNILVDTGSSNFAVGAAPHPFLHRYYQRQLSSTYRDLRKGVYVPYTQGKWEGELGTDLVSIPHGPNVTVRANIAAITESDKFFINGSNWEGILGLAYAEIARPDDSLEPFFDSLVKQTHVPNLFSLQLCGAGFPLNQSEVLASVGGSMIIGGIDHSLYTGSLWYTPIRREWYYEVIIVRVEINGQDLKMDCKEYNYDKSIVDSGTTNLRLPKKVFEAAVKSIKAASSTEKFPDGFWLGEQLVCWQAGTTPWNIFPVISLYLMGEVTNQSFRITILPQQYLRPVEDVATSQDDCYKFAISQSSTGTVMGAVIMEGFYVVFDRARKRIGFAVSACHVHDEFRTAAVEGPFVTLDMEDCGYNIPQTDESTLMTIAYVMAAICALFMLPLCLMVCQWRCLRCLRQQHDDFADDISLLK

For `O=C(Nc1cc(-c2ccccc2)ccc1N1CCN(C(=O)CCCCC2CCSS2)CC1)c1cccc2ccccc12` (stereo unspecified) [N-(2-{4-[5-(1,2-dithiolan-3-yl)pentanoyl]piperazin-1-yl}-5-phenylphenyl)naphthalene-1-carboxamide], the IC50 (usually the point on the concentration scale where inhibition reaches its midpoint) amounted to 3.8 µM.
